This experiment addresses T1, Recombinant Src enzyme (Homo sapiens, UniProt P12931).
T1 construct: purchased Millipore 14-326; host or cells: Sf21 insect cells
Nature of the experiment: Src HTRF assay. It is filed as biochemical. On the procedure:
Enzyme assay buffer, supplements, and compounds were prepared as described in the FAK HTRF assay.
Recombinant Src enzyme expressed in Sf21 insect cells was obtained (Millipore, Cat No. 14-326, Lot # D8CN006U-K). A 35 μM stock was used at a final concentration of 5 nM in the assay.
Tyk2 synthetic peptide-Biotinylated-N-terminal tag-[…]
A custom made substrate, a Tyk2 synthetic peptide, biotinylated with an N-terminal tag was obtained (Biopeptide and Sigma, Cat. No. 14918001 VC80021). A 100 μM stock was used at a final concentration of 0.5 μM in the assay.
A 10 mM stock in 100 μL enzyme assay buffer pH7.4 was prepared freshly and used at a final concentration of 10 μM in the assay.
Dasatinib (Bristol-Myers Squibb)
The assay procedure was the same as discussed above.
(In general: Time-resolved FRET reads energy transfer from a long-lived donor to a nearby acceptor.)

SMILES strings stand for the structures. A value given as a limit tells only on which side of the number the result lay.

Usually IC50 stands for the concentration that inhibits the measured activity by half.

T1 sequence (P12931 whole entry): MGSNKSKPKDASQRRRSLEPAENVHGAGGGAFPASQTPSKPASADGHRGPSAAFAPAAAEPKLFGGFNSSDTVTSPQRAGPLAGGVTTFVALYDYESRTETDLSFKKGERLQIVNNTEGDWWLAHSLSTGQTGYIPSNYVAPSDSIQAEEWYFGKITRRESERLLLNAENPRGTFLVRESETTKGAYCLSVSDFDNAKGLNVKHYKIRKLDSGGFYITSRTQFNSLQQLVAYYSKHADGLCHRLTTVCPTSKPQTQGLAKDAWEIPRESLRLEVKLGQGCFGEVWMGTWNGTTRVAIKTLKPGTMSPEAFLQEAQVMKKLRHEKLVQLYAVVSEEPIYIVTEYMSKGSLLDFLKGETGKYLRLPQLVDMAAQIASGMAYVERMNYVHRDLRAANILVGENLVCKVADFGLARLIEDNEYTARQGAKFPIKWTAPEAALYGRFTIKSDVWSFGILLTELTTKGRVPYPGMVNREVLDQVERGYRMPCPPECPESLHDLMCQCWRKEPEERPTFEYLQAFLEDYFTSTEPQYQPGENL

With `CN(C)C1CCN(c2ccc(Nc3ncc4c(C#N)cn(Cc5cccnc5N(C)S(C)(=O)=O)c4n3)cc2)CC1` [Example 728], the IC50 is greater than 1000 nM. Then `C[C@H]1CN(c2ccc(Nc3cc4c(ccn4Cc4cccnc4N(C)S(C)(=O)=O)cn3)cc2)CCN1` [Example 616], with greater than 1000 nM. In the case of `Cc1cn(Cc2cccnc2N(C)S(C)(=O)=O)c2nc(Nc3ccc(N4CCNCC4)cc3)ncc12` [Example 719], the half-inhibitory concentration (IC50) is greater than 1000 nM. As for `COc1ccccc1S(=O)(=O)n1ccc2cnc(Nc3cccc(NC(C)=O)c3)nc21` [Example 104], the figure is greater than 1000 nM; as for `CN(c1ncccc1CN1CCc2cnc(Nc3ccc(N4CCNCC4)cc3)nc21)S(C)(=O)=O` [Example 433], greater than 1000 nM; as for `COc1c(Nc2ncc3ccn(S(=O)(=O)c4cccc5cccnc45)c3n2)ccc(N2CCNCC2)c1F` [Example 370], greater than 1000 nM.

As for `CC1(C)CN(S(=O)(=O)c2cccc3cccnc23)c2nc(Nc3ccc(N4CCN(C5CC5)CC4)cc3)ncc21` [Example 771], the IC50 is greater than 1000 nM. Then `CN(c1ncccc1Cn1ccc2cnc(Nc3ccc(N4CCN(CCO)CC4)cc3)cc21)S(C)(=O)=O` [Example 393], with greater than 1000 nM; and `CN(c1ncccc1Cn1ccc2cnc(Nc3ccccc3F)nc21)S(C)(=O)=O` [Example 155], with greater than 1000 nM; and `O=S(=O)(c1cccc2cccnc12)n1ccc2cnc(Nc3ccc(N4CCNCC4)cc3CO)nc21` [Example 363], with greater than 1000 nM. In the case of `CN(c1ccccc1Cn1cc(C#N)c2cnc(Nc3ccc(N4CCNCC4)cc3)nc21)S(C)(=O)=O` [Example 731], the IC50 was greater than 1000 nM.

Take `CN(c1ncccc1Cn1ccc2cnc(Nc3ccncc3)nc21)S(C)(=O)=O` [Example 138]: the IC50 is greater than 1000 nM. As for `CC(c1ccccc1N(C)S(C)(=O)=O)n1ccc2cnc(Nc3ccc(N4CCN[C@H](C)C4)cc3)nc21` (some centres unmarked) [Example 779], the figure is greater than 1000 nM; as for `O=C1CCc2cc(Nc3cc4c(ccn4S(=O)(=O)c4cccc(OC(F)(F)F)c4)cn3)ccc2N1` [Example 56], greater than 1000 nM. As for `COc1cc(C(=O)N2CCOCC2)ccc1Nc1ncc2ccn(Cc3ccccc3N(C)S(C)(=O)=O)c2n1` [Example 503], the figure is greater than 1000 nM.

Turning to `COc1cc(Nc2cc3c(ccn3Cc3cccnc3N(C)S(C)(=O)=O)cn2)ccc1N1CCNCC1` [Example 364], the IC50 is greater than 1000 nM. As to `COc1ccc(Cn2ccc3cnc(Nc4ccc(N5CCNCC5)cc4)nc32)c(N(C)S(C)(=O)=O)c1` [Example 772], the IC50 is greater than 1000 nM. As for `CC(=O)Nc1ccc(S(=O)(=O)n2ccc3cnc(Nc4ccc5c(c4)CCC(=O)N5)nc32)cc1` [Example 192], the figure is greater than 1000 nM; as for `COc1cc(Nc2ncc3c(n2)N(S(=O)(=O)c2cccc4cccnc24)CC3(C)C)ccc1N1CCN[C@@H](C)C1` [Example 627], greater than 1000 nM; as for `CC(c1ccccc1Cn1ccc2cnc(Nc3ccc(N4CCC(N(C)C)CC4)cc3)nc21)S(C)(=O)=O` (centres unmarked) [Example 791], greater than 1000 nM. Then `O=S(=O)(c1ccc2ncsc2c1)n1ccc2cnc(Nc3ccc(N4CCNCC4)cc3)nc21` [Example 234], with greater than 1000 nM; and `CC(=O)Nc1cccc(Nc2ncc3ccn(S(=O)(=O)c4cccc(OC(F)(F)F)c4)c3n2)c1` [Example 40], with greater than 1000 nM.

Take `CN(C)C1CN(c2ccc(Nc3ncc4c(n3)N(S(=O)(=O)c3cccc5cccnc35)CC4(C)C)cc2)C1` [Example 603]: the IC50 is greater than 1000 nM. As for `COc1ccccc1S(=O)(=O)n1ccc2cnc(Nc3cccnc3)nc21` [Example 143], the figure is greater than 1000 nM; as for `COc1ccc(Cn2ccc3cnc(Nc4ccc(N5CCN[C@H](C)C5)cc4)nc32)c(N(C)S(C)(=O)=O)c1` [Example 671], greater than 1000 nM; as for `Cc1ccccc1Nc1ncc2ccn(Cc3cccnc3N(C)S(C)(=O)=O)c2n1` [Example 148], greater than 1000 nM. `C[C@H]1CNCCN1c1ccc(Nc2cc3c(ccn3S(=O)(=O)c3ccccc3C#N)cn2)cc1` [Example 477]: the IC50 is greater than 1000 nM. In the case of `CN(c1ncccc1Cn1ncc2cnc(Nc3ccc(N4CCNCC4)cc3)nc21)S(C)(=O)=O` [Example 241], the IC50 was less than 20 nM. As for `CN(c1ncccc1Cn1ccc2cnc(Nc3cccc(-c4nnn[nH]4)c3)nc21)S(C)(=O)=O` [Example 188], the figure is greater than 1000 nM.

With `CN(c1ncccc1Cn1cc(F)c2cnc(Nc3ccc(N4CCNCC4)cc3)nc21)S(C)(=O)=O` [Example 722], the IC50 was greater than 1000 nM.

As to `COc1ccccc1S(=O)(=O)n1ccc2cnc(Nc3ccncc3)nc21` [Example 144], the IC50 is greater than 1000 nM.

Turning to `O=C1CCc2cc(Nc3ncc4ccn(S(=O)(=O)c5ccc6ncsc6c5)c4n3)ccc2N1` [Example 226], the IC50 was greater than 1000 nM. As to `Cc1ccnc2c(S(=O)(=O)n3ccc4cnc(Nc5ccc(N6CCC(O)CC6)cc5)nc43)cccc12` [Example 402], the IC50 was greater than 1000 nM. Then `CN(c1ncccc1Cn1ccc2cnc(Nc3ccc(N4CCC(O)CC4)cc3)cc21)S(C)(=O)=O` [Example 384], with greater than 1000 nM; and `CN(C)C1CCN(c2ccc(Nc3ncc4ccn(Cc5ccc(C#N)cc5N(C)S(C)(=O)=O)c4n3)cc2)CC1` [Example 689], with greater than 1000 nM; and `CC1(C)CN(S(=O)(=O)c2cccc3cccnc23)c2nc(Nc3ccc4c(c3)CC(=O)N4)ncc21` [Example 511], with greater than 1000 nM. Then `CC(C)(O)C(=O)Nc1cccc(Nc2ncc3ccn(S(=O)(=O)c4ccccc4OC(F)(F)F)c3n2)c1` [Example 110], with greater than 1000 nM; and `O=C(Nc1ccc(Nc2cc3c(cn2)cnn3S(=O)(=O)c2cccc3cccnc23)cc1)C1CC1` [Example 375], with greater than 1000 nM; and `C[C@H]1CN(c2ccc(Nc3ncc4ccn(Cc5ccccc5N(C)S(C)(=O)=O)c4n3)nc2)CCN1` [Example 565], with greater than 1000 nM. For `C[C@H]1CN(c2ccc(Nc3ncc4ccn(Cc5cccc6c5N(C)S(=O)(=O)C6)c4n3)cc2)CCN1` [Example 764], the IC50 was greater than 1000 nM. As to `COc1cc(N2CCNCC2)ccc1Nc1cc2c(ccn2S(=O)(=O)c2cccc3ccc(C)nc23)cn1` [Example 382], the IC50 is greater than 1000 nM.

For the molecule `CN(c1cccc(Cn2ccc3cnc(Nc4ccc5c(c4)CCC(=O)N5)nc32)n1)S(C)(=O)=O` [Example 141], the IC50 was greater than 1000 nM. Then `C[C@H]1CN(c2ccc(Nc3ncc4ccn(Cc5ccc(C#N)cc5N(C)S(C)(=O)=O)c4n3)cc2)CCN1` [Example 685], with greater than 1000 nM; and `COc1ccccc1S(=O)(=O)n1ncc2cnc(Nc3ccc4c(c3)CCC(=O)N4)cc21` [Example 130], with greater than 1000 nM. As for `CC1(C)CN(S(=O)(=O)c2cccc3cccnc23)c2nc(Nc3ccc(N4CCC(CO)CC4)cc3)ncc21` [Example 625], the figure is greater than 1000 nM; as for `CC(=O)Nc1cccc(Nc2cc3c(ccn3Cc3ccccc3OC(F)F)cn2)c1` [Example 98], greater than 1000 nM; as for `O=S(=O)(c1cccc2cccnc12)n1ccc2cnc(Nc3ccc(N4CCNCC4)cc3CO)cc21` [Example 361], greater than 1000 nM.

The record behind these values is patent US20160222014A1, “COMPOUNDS FOR REGULATING FAK AND/OR SRC PATHWAYS” (ASANA BIOSCIENCES, LLC, priority 2013, published 2016).
